# From patent US8273775B2, “Non-steroidal brassinosteroid mimetic” (priority 2006, dated 2012)
# Test system: gene expression in Col-0 seedling shoots
# Assay: Microarray analysis (ATH1 Affymetrix) after BL or abrasin treatment
# Format: in vivo, Arabidopsis
# Settings: 120 min
# Description: FIG. 14: Clustering of gene expression profiles by QT-clust analysis. Clusters illustrating the major patterns of the data sets. Points: BIK-30: 30 μM abrasin 30 min; BL-30: 1 μM brassinolide 30 min; DMSO-30: control DMSO 30 min; BIK-120: 30 μM abrasin 120 min; BL-120: 1 μM brassinolide 120 min; DMSO-120: control DMSO 120 min.
# Col-0 seeds were germinated vertically on ½ MS medium for 7 days under 16 h light/8 h dark cycles. The seedlings were overlaid with liquid ½ MS medium containing 1 μM brassinolide (BL, Fuji Chemical Industries, Ltd., Toyama, Japan), 30 μM abrasin (BIK, ChemBridge Corporation) and DMSO and treated for 30 and 120 min. The shoot parts were collected for RNA isolation. All sampling points were performed in three independent experiments. RNA was extracted using RNeasy kit (Qiagene). […] total RNA per array was used to hybridise the ATH1 Affymetrix Arabidopsis arrays according to standard procedure. The overrepresentation analyses were performed using BiNGO software (Maere et al., 2005).
# We performed a microarray analysis using the Arabidopsis whole genome chip (Affymetix) to determine whether abrasin activated the expression of BR-inducible genes at transcriptional level. Wild-type Col-0 seedlings were exposed to 1 μM BL, 30 μM ABRASIN and DMSO (mock-treatment) for two time points (30 min and 120 min) and the shoot parts were collected for RNA isolation. The analysis of the variance of the normalized gene expression data took in account the variability parameters affecting the expression level: type of hormone treatment, duration of treatment and the interaction between these two.
compound,measurement,setting,value
"O=C(O)CCC(=O)Nc1ccc(Br)cn1 [abrasin, 4-[(5-bromo-2-pyridinyl)amino]-4-oxobutanoic acid]",Fold-change AT4G16780 homeobox-leucine zipper protein 4 (HAT4)/HD-ZIP protein,,0.42
same,Fold-change AT4G17250 expressed protein,,3.32
same,Fold-change AT4G17460 homeobox-leucine zipper protein 1 (HAT1)/HD-ZIP protein 1,,0.11
same,Fold-change AT4G21510 F-box family protein,,2.54
same,Fold-change AT4G23030 MATE efflux protein-related,,5.25
same,Fold-change AT4G23070 rhomboid family protein,,3.80
same,Fold-change AT4G23810 WRKY family transcription factor,,1.00
same,"Fold-change AT4G24160 hydrolase, alpha/beta fold family protein",,2.29
same,Fold-change AT4G25620 hydroxyproline-rich glycoprotein family protein,,0.49
same,Fold-change AT4G25780 pathogenesis-related protein,,0.18
same,Fold-change AT4G27970 C4-dicarboxylate transporter/malic acid transport family protein,,3.04
same,Fold-change AT4G28240 wound-responsive protein-related,,0.33
same,"Fold-change AT4G28490 leucine-rich repeat transmembrane protein kinase, putative",,2.30
same,Fold-change AT4G28703 expressed protein,,6.14
same,Fold-change AT4G28780 GDSL-motif lipase/hydrolase family protein,,1.26
same,Fold-change AT4G29070 expressed protein,,0.50
same,Fold-change AT4G30080 transcriptional factor B3 family protein,,0.41
same,Fold-change AT4G31020 expressed protein,,5.81
same,Fold-change AT4G32280 auxin-responsive AUX/IAA family protein (IAA29),,0.13
same,Fold-change AT4G33050 calmodulin-binding family protein,,1.58
same,Fold-change AT4G33700 CBS domain-containing protein,,0.38
same,Fold-change AT4G34610 homeodomain-containing protein,,0.41
same,Fold-change AT4G36110 auxin-responsive protein,,4.62
same,Fold-change AT4G36780 brassinosteroid signalling positive regulator-related,,0.03
same,Fold-change AT4G37240 expressed protein,,1.45
same,Fold-change AT4G37290 expressed protein,,2.45
same,Fold-change AT4G37590 phototropic-responsive NPH3 family protein,,0.43
same,Fold-change AT4G38840 auxin-responsive protein (SAUR14),,1.95
same,Fold-change AT4G38850 auxin-responsive protein (SAUR-AC1),,2.22
same,Fold-change AT4G38860 auxin-responsive protein (SAUR16),,2.27
same,Fold-change AT4G39400 brassinosteroid insensitive 1 (BRI1),,0.46
same,Fold-change AT5G02020 expressed protein,,2.29
same,Fold-change AT5G05690 cytochrome P450 90A1 (CYP90A1) (CYP90) (CPD),,0.29
same,Fold-change AT5G07690 myb family transcription factor (MYB29),,0.27
same,Fold-change AT5G08130 basic helix-loop-helix (bHLH) family protein (BIM2),,0.37
same,Fold-change AT5G12050 expressed protein,,0.27
same,Fold-change AT5G13180 no apical meristem (NAM) family protein,,0.39
same,Fold-change AT5G13740 sugar transporter family protein,,0.23
same,Fold-change AT5G14730 expressed protein,,0.53
same,Fold-change AT5G16200 50S ribosomal protein-related,,0.10
same,Fold-change AT5G16980 NADP-dependent oxidoreductase,,3.07
same,Fold-change AT5G18750 DNAJ heat shock N-terminal domain-containing protein,,1.26
same,Fold-change AT5G19200 short-chain dehydrogenase/reductase (SDR) family protein,,1.11
same,Fold-change AT5G19340 expressed protein,,0.23
same,Fold-change AT5G24030 C4-dicarboxylate transporter/malic acid transport family protein,,1.66
same,Fold-change AT5G24660 expressed protein,,3.61
same,Fold-change AT5G25240 expressed protein,,2.16
same,Fold-change AT5G25930 leucine-rich repeat family protein,,1.38
same,Fold-change AT5G27350 sugar-porter family protein 1 (SFP1),,1.56
same,Fold-change AT5G27670 histone H2A,,0.41
same,Fold-change AT5G38310 expressed protein,,1.88
same,"Fold-change AT5G38990; AT5G39000 [AT5G38990, protein kinase family protein",,2.08
same,Fold-change AT5G39050 transferase family protein,,1.83
same,Fold-change AT5G39610 no apical meristem (NAM) family protein,,0.35
same,Fold-change AT5G39970 expressed protein,,2.66
same,Fold-change AT5G42830 transferase family protein,,2.74
same,Fold-change AT5G47370 homeobox-leucine zipper protein 2 (HAT2),,0.43
same,Fold-change AT5G48070 putative xyloglucan endotransglycosylase/hydrolase,,3.63
same,Fold-change AT5G48540 33 kDa secretory protein-related,,2.03
same,Fold-change AT5G51550 phosphate-responsive 1 family protein,,0.41
same,"Fold-change AT5G54490 calcium-binding EF-hand protein, putative",,3.06
same,Fold-change AT5G54860 integral membrane transporter family protein,,2.01
same,Fold-change AT5G55970 zinc finger (C3HC4-type RING finger) family protein,,2.56
same,Fold-change AT5G56980 expressed protein,,0.22
same,Fold-change AT5G57190 phosphatidylserine decarboxylase,,1.58
same,Fold-change AT5G57780 expressed protein,,0.13
same,Fold-change AT5G59080 expressed protein,,0.40
same,Fold-change AT5G60200 Dof-type zinc finger domain-containing protein,,3.85
same,Fold-change AT5G60270 lectin protein kinase family protein,,2.56
same,Fold-change AT5G60630 expressed protein,,2.20
same,Fold-change AT5G61600 encodes a member of the ERF (ethylene response factor),,2.04
same,Fold-change AT5G62360 invertase/pectin methylesterase inhibitor family protein,,0.25
same,Fold-change AT5G65310 homeobox-leucine zipper protein 5 (HB-5)/HD-ZIP transcription factor 5,,0.20
same,Fold-change AT5G66420 expressed protein,,0.42
same,Fold-change AT5G66590 allergen V5/Tpx-1-related family protein,,0.31
same,Fold-change AT5G67450 zinc finger (C2H2 type) protein 1 (AZF1),,1.82
same,Fold-change of gene AT4G16140 (proline-rich family protein),"245479_at, Cluster 6",1.51
same,Fold-change of gene AT4G15260 (UDP-glucoronosyl/UDP-glucosyl transferase family protein),"245543_at, Cluster 7",1.52
same,"Fold-change of gene AT5G09440 (phosphate-responsive protein, putative)","245885_at, Cluster 5",0.13
same,Fold-change of gene AT1G77380 (amino acid carrier),"246389_at, Cluster 10",0.99
same,Fold-change of gene AT5G15740 (expressed protein),"246516_at, Cluster 5",0.49
same,Fold-change of gene AT5G65300 (expressed protein),"247177_at, Cluster 5",0.25
same,Fold-change of gene AT5G64890 (expressed protein),"247205_at, Cluster 10",2.18
same,Fold-change of gene AT5G63790 (no apical meristem (NAM) family protein),"247351_at, Cluster 9",0.69
same,Fold-change of gene AT5G62630 (expressed protein),"247444_at, Cluster 7",2.28
same,Fold-change of gene AT5G60850 (Dof-type zinc finger domain-containing protein),"247601_at, Cluster 10",0.64
same,Fold-change of gene AT5G59510 (expressed protein),"247704_at, Cluster 9",0.60
same,Fold-change of gene AT5G58660 (oxidoreductase. 2OG-Fe(II) oxygenase family protein),"247774_at, Cluster 5",2.15
same,Fold-change of gene AT5G54120 (expressed protein),"248190_at, Cluster 5",0.38
same,Fold-change of gene AT5G54130 (calcium-binding EF hand family protein),"248191_at, Cluster 5",0.31
same,Fold-change of gene AT5G52900 (expressed protein),"248282_at, Cluster 6",0.96
same,Fold-change of gene AT5G49100 (expressed protein),"248646_at, Cluster 9",0.62
same,Fold-change of gene AT5G18060 (auxin-responsive protein),"250012_x_at, Cluster 6",0.46
same,Fold-change of gene AT5G09800 (U-box domain-containing protein),"250493_at, Cluster 9",0.80
same,Fold-change of gene AT5G08565 (expressed protein),"250537_at, Cluster 8",0.41
same,Fold-change of gene AT5G03670 (expressed protein),"250907_at, Cluster 5",0.32
same,Fold-change of gene AT5G01740 (expressed protein),"251072_at, Cluster 5",0.34
same,Fold-change of gene AT3G63380 (calcium-transporting ATPase),"251176_at, Cluster 10",0.11
same,Fold-change of gene AT3G60690 (auxin-responsive family protein),"251342_at, Cluster 9",0.29
same,Fold-change of gene AT3G45610 (Dof-type zinc finger domain),"252586_at, Cluster 10",2.56
same,Fold-change of gene AT3G44610 (protein kinase family protein),"252646_at, Cluster 5",0.38
same,Fold-change of gene AT4G34760 (auxin-responsive family protein),"253255_at, Cluster 6",1.61
same,Fold-change of gene AT4G34138 (UDP-glucoronosyl/UDP-glucosyl transferase family protein),"253281_at, Cluster 7",3.16
same,Fold-change of gene AT4G31910 (transferase family protein),"253483_at, Cluster 5",1.60
same,Fold-change of gene AT4G30410 (expressed protein),"253617_at, Cluster 5",0.45
same,Fold-change of gene AT4G30450 (glycine-rich protein),"253629_at, Cluster 5",0.39
same,Fold-change of gene AT4G26200 (1-aminocyclopropane-1-carboxylate synthase),"253999_at, Cluster 9",0.24
same,Fold-change of gene AT4G03400 (auxin-responsive GH3 family protein),"255403_at, Cluster 6",0.77
same,Fold-change of gene AT4G02700 (sulfate transporter),"255443_at, Cluster 7",2.16
same,Fold-change of gene AT1G22190 (AP2 domain-containing transcription factor),"255926_at, Cluster 8",0.50
same,Fold-change of gene AT1G66140 (zinc finger (C2H2 type) family protein),"256528_at, Cluster 6",0.61
same,Fold-change of gene AT3G25655 (expressed protein),"256762_at, Cluster 8",0.15
same,"Fold-change of gene AT3G21420 (oxidoreductase, 2OG-Fe(II) oxygenase family protein)","256818_at, Cluster 7",2.39
same,Fold-change of gene AT3G18280 (protease inhibitor/seed storage/lipid transfer protein),"257066_at, Cluster 5",0.39
same,Fold-change of gene AT1G29440 (auxin-responsive family protein),"257506_at, Cluster 6",0.47
same,"Fold-change of gene AT3G29200 (chorismate mutase, chloroplast (CM1))","257746_at, Cluster 5",0.49
same,Fold-change of gene AT1G13260 (DNA-binding protein RAV1 (RAV1)),"259364_at, Cluster 8",0.46
same,Fold-change of gene AT1G29500 (auxin-responsive protein),"259773_at, Cluster 6",0.61
same,Fold-change of gene AT1G29510 (auxin-responsive protein),"259783_at, Cluster 6",0.50
same,Fold-change of gene AT1G29450 (auxin-responsive protein),"259784_at, Cluster 6",0.61
same,Fold-change of gene AT1G29460 (auxin-responsive protein),"259787_at, Cluster 6",0.44
same,"Fold-change of gene AT1G76690; AT1G76680 ([AT1G76690, 12-oxophytodienoate reductase (OPR2))","259875_s_at, Cluster 7",6.14
same,Fold-change of gene AT1G76620 (expressed protein),"259985_at, Cluster 8",0.28
same,Fold-change of gene AT1G63720 (expressed protein),"260243_at, Cluster 10",0.16
same,Fold-change of gene AT1G48100 (glycoside hydrolase family 28 protein),"260727_at, Cluster 8",0.38
same,Fold-change of gene AT1G12200 (flavin-containing monooxygenase family protein),"261023_at, Cluster 7",2.20
same,Fold-change of gene AT1G12845 (expressed protein),"261203_at, Cluster 6",2.71
same,Fold-change of gene AT1G15550 (gibberellin 3-beta-dioxygenase),"261768_at, Cluster 6",1.17
same,Fold-change of gene AT1G80840 (WRKY family transcription factor),"261892_at, Cluster 9",0.20
same,Fold-change of gene AT1G80080 (leucine-rich repeat family protein),"262040_at, Cluster 6",2.07
same,Fold-change of gene AT1G80130 (expressed protein),"262050_at, Cluster 8",0.18
same,Fold-change of gene AT1G21680 (expressed protein),"262505_at, Cluster 10",2.01
same,Fold-change of gene AT1G34245 (expressed protein),"262543_at, Cluster 6",5.18
same,Fold-change of gene AT1G78460 (SOUL heme-binding family protein),"263126_at, Cluster 7",2.50
same,"Fold-change of gene AT1G78820; AT1G78830 ([AT1G78820, curculin-like (mannose-binding) lectin family protein)","264279_s_at, Cluster 7",1.84
same,Fold-change of gene AT2G42380 (bZIP transcription factor family protein),"265877_at, Cluster 6",0.80
same,Fold-change of gene AT2G45080 (cyclin family protein),"266124_at, Cluster 8",0.10
